Test results taken from EP4201411A1, “NOVEL USE OF VITAMIN B12” (DSM IP Assets B.V., priority 2021, dated 2023).

Key:
Assay type in all cases: cell-based, human
miR-22-3p = miR-22-3p quantification by RT-qPCR in UV-B irradiated skin explants (ex vivo); conditions: for miR-22-3p QR mean: skin explants, UV-B 200 mJ/cm2, normalized using U6 RNA, NT_UV = 1.067; for expression level of miR-22-3p (in words): skin explants after UV-B stress, vs NT_UV
Procedure: (§1) To further define the benefits of vitamin B12 in the skin, we included analysis of the compound in response to a stressor that induces inflammasome-medicated inflammation. Stress model options include UV exposure, confirming the effects on more complex skin tissues (ex vivo model). Firstly, the cytotoxicity of the active ingredient was evaluated. Then, the capacity of the active ingredient was measured to regulate inflammasome activation. […] Using immunohistochemistry, the effect of the active ingredient on the level of ASC protein (inflammasome marker) was studied. Finally, the expression level of miRNA hsa-miR-22-3p was quantified from RT-qPCR.
(§2) Ex vivo culture model and treatment: Fresh skin explants were obtained from abdominal surgery of a person. The culture medium dedicated to skin explants was used and renewed every day during each treatment. The skin biopsies were cultured in different conditions and each condition was performed in triplicates and processed separately. The active ingredient treatment was applied before and after the UV-B stress, but not during the UV stress. An UV-B irradiation of […] for 2 minutes was applied identically onto each irradiated skin explant. Prior to the irradiation, the culture medium was removed and replace by PBS +/+ for the duration of the stress.
(§3) Samples: • 1.Control Explant (No treatment, no irradiation) (NT_NS) • 2. Explant + UVB (NT_UV) • 3. Explant + UVB + vitamin B12 (0.01%) • 4. Explant + UVB + vitamin B12 (0.001%) Total no. of samples = 4 x 3 = 12 samples
The miRNAs were extracted and purified using miRCURY RNA Isolation Kit. The quality control and miRNA quantification were performed using Agilent RNA Small kit and Analysis Agilent 2100 bioanalyzer. For miR qPCR, the RNA was reverse transcribed with a miRCURY LNA RT kit (339340, Qiagen). The reverse transcription reactions were diluted, and a fraction of diluted cDNA was used for each quantitative PCR, which was performed with a miRCURY LNA SYBR Green PCR kit (339346, Qiagen) using the CFX-connect (Biorad). The results were normalized to U6 expression. The reference and expression level of miRNA were calculated using 2ΔΔCt method.
Table 2: Effect of vitamin B12 on miR expression in skin explants after UV-B stress. The explants were treated with vitamin B12 at two concentrations (0,01% and 0,001%) and irradiated with UV-B at 200 mJ/cm2. The miR expression was normalized using U6 RNA. Two-tailed unpaired t-test was used for statistical analysis (using values from 3 replicates) vs NT_UV (*p-value <0.05).

skin explants = test: LDH cytotoxicity assay on UV-B irradiated skin explants (ex vivo); conditions: for Cytotoxicity [OD 450 nm] Mean/conditions: LDH production, skin explants irradiated with 200 mJ/cm2 UVB
Procedure: as §1, §2, §3
Cytotoxicity method: Lactate dehydrogenase assay kit (LDH) was purchased from Roche and used according to manufacturer's protocol.
Table 1: Effect of vitamin B12 on LDH production by skin explants at 2 concentrations (0,01% and 0,001%) and of the positive control Triton at 0.1% after irradiation with 200 mJ/cm2 UVB. The statistical analysis was performed using two-tailed unpaired T-test and was not significant (p<0.05) for the vitamin B12 treatment vs irradiated control (NT_UV).

Interleukin-1β = test: IL-1β competitive ELISA on culture supernatants of UV-B irradiated skin explants (ex vivo); conditions: vitamin B12 0,01%
Procedure: as §1, §2, §3
The secretion of Interleukin-1β in response to activation of the stress-induced inflammatory signaling pathway was evaluated using a competitive ELISA assay. 24 hours after exposure to UV-B irradiation, culture supernatants of explants were recovered. The samples were then treated according to the manufacturer's instructions using the IL-1β (RAB0273, Sigma Aldrich). The Interleukin production by explants was measured at 450 nm using ENSIGHT.
IL-1β secretion results: UV-B increased the production of IL-1β compared to the untreated control. […]

ASC protein = test: ASC immunostaining of sections of UV-B irradiated skin explants (ex vivo); conditions: for ASC complex, % / ASC complex, mean_int (int/area) / ASC complex, Mean intensity / condition: skin explant sections, UVB 200mJ/cm2; for ASC complex, %: NTNS = 100.00, NTUV = 138.17; for ASC complex, mean_int (int/area) / ASC complex, Mean intensity / condition: n =38; for ASC complex, Mean intensity / condition: NTUV = 660.03, NTNS = 477.70
Procedure: as §1, §2, §3
To evaluate the onset of apoptotic signaling, the fluorescence intensity of ASC was measured. After UV exposure, the explants were replaced in a fresh culture medium. At the end of the treatments the explants were frozen and then cut into thin sections. Following this, immunohistochemistry was performed by adding primary monoclonal Antibody ASC/TMS1/PYCARD (clone B-3) (SantaCruz #sc-514414) and secondary antibody anti-mouse coupled to Cy5 (Jackson Laboratory). After Hoechst 33342 staining, the fluorescence intensity was measured using a Zeiss fluorescence microscope (Axio imager Z1).
Table 4: Quantification of ASC complex immunolabelled in skin explant sections with or without UV-B stress and after vitamin B12 treatment at 0,01% or 0,001% and irradiated or not with UVB at 200mJ/cm2. The statistical analysis was performed using two-tailed unpaired T-test vs NT_UV (+ p-value <0.05, ++ p-value<0.01, +++ p-value<0.001).

## cyanocobalamin [vitamin B12]
miR-22-3p; vitamin B12 0,01%
  miR-22-3p QR mean: 1.721
miR-22-3p; vitamin B12 0.01%
  expression level of miR-22-3p (in words): significantly increased
miR-22-3p; vitamin B12 0,001%
  expression level of miR-22-3p (in words): tends to increase miR-22-3p expression, but this activation is not statistically significant
  miR-22-3p QR mean: 1.334
Skin explants; vitamin B12 0,01%
  Cytotoxicity [OD 450 nm] Mean/conditions: 0.131 OD 450 nm
Skin explants; vitamin B12 0,001%
  Cytotoxicity [OD 450 nm] Mean/conditions: 0.163 OD 450 nm
Skin explants; vitamin B12 0,01% and 0,001%, skin explants after UVB, compared to biopsies treated with Triton 0.1%
  cytotoxicity (in words): did not exert cytotoxicity
Interleukin-1β; skin explants after UV-B stress
  IL-1β secretion (in words): seems to decrease
Interleukin-1β; skin explants after UV-B, NT_NS = 100, NT_UV = 157
  IL-1β secretion, Relative Intensity: 137
Interleukin-1β; skin explants, 24 hours after UV-B, NT_UV = 4.914, NT_NS = 3.122
  IL-1β secretion, Mean Intensity: 4.2644
ASC protein; vitamin B12 0,01%
  ASC complex, %: 103.22%
  ASC complex, mean_int (int/area): 491.31 int/area
  ASC complex, Mean intensity / condition: 493.07
ASC protein; vitamin B12 0.001 % and 0.01 % topically on UV-irradiated skin explants
  ASC protein (in words): significantly reduced the ASC protein in a dose-dependent manner
ASC protein; vitamin B12 0.001%, after UV-B treatment
  ASC complex activation (in words): significantly reduces the ASC complex activation
ASC protein; vitamin B12 0.01%, compared to the UV-B stressed sample
  ASC complex activation (in words): significantly reduce the ASC complex activation to the level of the none irradiated extract
ASC protein; vitamin B12 0,001%
  ASC complex, %: 118.48%
  ASC complex, mean_int (int/area): 524.44 int/area
  ASC complex, Mean intensity / condition: 565.99
